Assay results: ChEMBL document CHEMBL4152366, “Design, synthesis, and biological evaluation of novel selective peptide inhibitors of 11β-hydroxysteroid dehydrogenase 1” (Bioorg Med Chem, 2018)

Assays:
[1] = target: T1, 11-beta-hydroxysteroid dehydrogenase 1 (Homo sapiens, UniProt P28845); assay: Inhibition of human 11beta-HSD1 expressed in HEK293 cell lysates using radiolabeled cortisone as substrate incubated for 10 mins by scintillation counting method
Target sequence in this assay (P28845 whole entry): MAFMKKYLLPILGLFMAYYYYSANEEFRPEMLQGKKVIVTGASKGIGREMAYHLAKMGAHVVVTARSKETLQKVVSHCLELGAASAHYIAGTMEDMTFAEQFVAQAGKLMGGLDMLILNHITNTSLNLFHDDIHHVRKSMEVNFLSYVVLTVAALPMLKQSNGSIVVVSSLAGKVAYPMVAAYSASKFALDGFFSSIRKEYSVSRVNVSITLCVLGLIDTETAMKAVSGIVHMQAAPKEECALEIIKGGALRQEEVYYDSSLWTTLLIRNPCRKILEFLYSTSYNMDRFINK

[2] = target: T1, 11-beta-hydroxysteroid dehydrogenase 1; assay: Inhibition of 11beta-HSD1 in human primary keratinocytes assessed as reduction in conversion of […] incubated for 48 hrs by enzyme immunoassay; format: cell-based
Target sequence in this assay (P28845 whole entry, looked up): as the sequence (P28845 whole entry) above

[3] = target: T1, 11-beta-hydroxysteroid dehydrogenase 1; assay: Inhibition of 11beta-HSD1 in human skin assessed as reversal of cortisone-mediated decrease in dermal total collagen content at 200 uM by picrosirius red histochemical staining based assay
Target sequence in this assay (P28845 whole entry, looked up): as the sequence (P28845 whole entry) above

[4] = target: T1, 11-beta-hydroxysteroid dehydrogenase 1; assay: Inhibition of 11beta-HSD1 in human skin assessed as reversal of cortisone-mediated decrease in dermal total collagen content at 10 to 100 uM by picrosirius red histochemical staining based assay
Target sequence in this assay (P28845 whole entry, looked up): as the sequence (P28845 whole entry) above

[5] = target: T1, 11-beta-hydroxysteroid dehydrogenase 1; assay: Inhibition of 11beta-HSD1 in human skin assessed as reversal of cortisone-mediated decrease in dermal total collagen content by picrosirius red histochemical staining based assay
Target sequence in this assay (P28845 whole entry, looked up): as the sequence (P28845 whole entry) above

[6] = target: T2, 17-beta-hydroxysteroid dehydrogenase type 1 (Homo sapiens) (UniProt P14061); assay: Inhibition of human 17beta-HSD1 expressed in HEK293 cell lysates assessed as remaining enzyme activity at 1 uM using radiolabeled estrone as substrate incubated for 10 mins by scintillation counting method relative to control; values are per cent of control
T2 sequence (whole entry): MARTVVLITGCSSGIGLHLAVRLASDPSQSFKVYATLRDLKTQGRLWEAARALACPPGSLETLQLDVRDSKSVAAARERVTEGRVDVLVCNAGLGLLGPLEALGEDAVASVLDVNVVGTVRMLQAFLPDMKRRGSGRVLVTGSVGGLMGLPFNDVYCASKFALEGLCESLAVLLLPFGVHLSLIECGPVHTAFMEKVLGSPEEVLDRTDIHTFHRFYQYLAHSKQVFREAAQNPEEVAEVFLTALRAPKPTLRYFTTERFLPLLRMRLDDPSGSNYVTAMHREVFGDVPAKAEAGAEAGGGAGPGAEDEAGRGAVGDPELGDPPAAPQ

[7] = target: T3, 17-beta-hydroxysteroid dehydrogenase type 2 (Homo sapiens) (UniProt P37059); assay: Inhibition of human 17beta-HSD2 expressed in HEK293 cell lysates assessed as remaining enzyme activity at 1 uM using radiolabeled estradiol as substrate incubated for 10 mins by scintillation counting method relative to control; values are per cent of control
T3 sequence (whole entry): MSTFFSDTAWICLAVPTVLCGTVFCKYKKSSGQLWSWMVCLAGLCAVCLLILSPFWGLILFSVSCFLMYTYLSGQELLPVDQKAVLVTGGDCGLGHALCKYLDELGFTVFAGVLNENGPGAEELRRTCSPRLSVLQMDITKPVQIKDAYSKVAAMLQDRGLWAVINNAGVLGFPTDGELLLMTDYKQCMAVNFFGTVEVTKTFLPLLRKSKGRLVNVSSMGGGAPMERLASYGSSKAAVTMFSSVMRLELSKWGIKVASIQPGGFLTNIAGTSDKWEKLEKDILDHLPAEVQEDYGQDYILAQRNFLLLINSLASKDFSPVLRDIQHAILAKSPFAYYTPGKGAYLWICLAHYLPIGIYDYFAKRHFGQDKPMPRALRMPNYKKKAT

[8] = target: T4, 11-beta-hydroxysteroid dehydrogenase type 2 (Homo sapiens) (UniProt P80365); assay: Inhibition of human 11beta-HSD2 expressed in HEK293 cell lysates assessed as remaining enzyme activity at 1 uM using radiolabeled cortisol as substrate incubated for 10 mins in presence of NAD+ by scintillation counting method relative to control; values are per cent of control
T4 sequence (whole entry): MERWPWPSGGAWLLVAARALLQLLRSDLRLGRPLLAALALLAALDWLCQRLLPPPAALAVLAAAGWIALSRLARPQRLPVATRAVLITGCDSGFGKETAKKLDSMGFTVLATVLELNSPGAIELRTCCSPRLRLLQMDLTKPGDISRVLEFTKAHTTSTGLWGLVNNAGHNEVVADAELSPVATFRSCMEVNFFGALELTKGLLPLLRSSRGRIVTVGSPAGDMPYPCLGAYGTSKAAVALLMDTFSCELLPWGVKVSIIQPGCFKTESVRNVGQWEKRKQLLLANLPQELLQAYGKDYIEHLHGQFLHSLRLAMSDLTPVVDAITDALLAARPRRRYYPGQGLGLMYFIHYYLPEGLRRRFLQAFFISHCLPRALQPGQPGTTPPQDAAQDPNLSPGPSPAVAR

Compound: CC(=O)N[C@@H](Cc1ccc(C#N)cc1)C(=O)N1CCC[C@@H]1C(=O)NC1C2CC3CC(C2)CC1C3 (stereo partly drawn)
- IC50 [1]: 197 nM
- inhibition [2]: Dose-dependent effect
- inhibition [3]: 100%
- inhibition [4]: 18%
- inhibition [5]: Dose-dependent effect
- residual activity [6]: > 90%
- residual activity [7]: > 90%
- residual activity [8]: > 90%

Compound: CCOc1ccc(C[C@H](N)C(=O)N2CCC[C@@H]2C(=O)NC2C3CC4CC(C3)CC2C4)cc1 (stereo partly drawn)
- IC50 [1]: 373 nM
- inhibition [2]: Dose-dependent effect
- residual activity [6]: > 90%
- residual activity [7]: > 90%
- residual activity [8]: > 90%

Compound: CC(=O)N[C@@H](Cc1ccc(F)cc1)C(=O)N1CCC[C@@H]1C(=O)NC1C2CC3CC(C2)CC1C3 (stereo partly drawn)
- IC50 [1]: 266 nM
- inhibition [2]: Dose-dependent effect
- residual activity [6]: > 90%
- residual activity [7]: > 90%
- residual activity [8]: > 90%
